In ChEMBL document CHEMBL1145498, “A systematic interaction map of validated kinase inhibitors with Ser/Thr kinases” (Proc Natl Acad Sci U S A, 2007):

How the values were obtained:
[1] = molecular target: 5'-AMP-activated protein kinase catalytic subunit alpha-2 (Homo sapiens) (UniProt P54646)
[2] = molecular target: Calcium/calmodulin-dependent protein kinase type II subunit alpha (Homo sapiens) (UniProt Q9UQM7)
[3] = molecular target: Calcium/calmodulin-dependent protein kinase type II subunit beta (Homo sapiens) (UniProt Q13554)
[4] = molecular target: Calcium/calmodulin-dependent protein kinase type II subunit delta (Homo sapiens) (UniProt Q13557)
[5] = molecular target: Calcium/calmodulin-dependent protein kinase type II subunit gamma (Homo sapiens) (UniProt Q13555)
[6] = molecular target: Cyclin-dependent kinase 2 (Homo sapiens, UniProt P24941)
[7] = molecular target: Cyclin-dependent kinase 6 (Homo sapiens) (UniProt Q00534)
[8] = molecular target: Cyclin-dependent kinase-like 1 (Homo sapiens) (UniProt Q00532)
[9] = molecular target: Serine/threonine-protein kinase Chk2 (Homo sapiens, UniProt O96017)
[10] = molecular target: Dual specificity protein kinase CLK1 (Homo sapiens) (UniProt P49759)
[11] = molecular target: Casein kinase I isoform gamma-2 (Homo sapiens) (UniProt P78368)
[12] = molecular target: Casein kinase I isoform gamma-3 (Homo sapiens) (UniProt Q9Y6M4)
[13] = molecular target: Death-associated protein kinase 3 (Homo sapiens) (UniProt O43293)
[14] = molecular target: Tyrosine-protein kinase JAK1 (Homo sapiens) (UniProt P23458)
[15] = molecular target: Dual specificity mitogen-activated protein kinase kinase 2 (Homo sapiens, UniProt P36507)
[16] = molecular target: T1, Dual specificity mitogen-activated protein kinase kinase 6 (Homo sapiens) (UniProt P52564)
T1 sequence (whole entry): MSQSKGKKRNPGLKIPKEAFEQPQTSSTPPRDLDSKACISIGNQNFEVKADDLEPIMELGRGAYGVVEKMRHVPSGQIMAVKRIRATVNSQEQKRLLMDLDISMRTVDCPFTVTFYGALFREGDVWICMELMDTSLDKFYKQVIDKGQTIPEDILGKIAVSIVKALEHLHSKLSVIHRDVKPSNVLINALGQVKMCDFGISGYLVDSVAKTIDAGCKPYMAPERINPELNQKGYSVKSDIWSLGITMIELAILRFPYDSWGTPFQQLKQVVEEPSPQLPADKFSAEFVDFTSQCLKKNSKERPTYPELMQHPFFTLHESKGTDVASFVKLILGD

[17] = molecular target: Mitogen-activated protein kinase 3 (Homo sapiens, UniProt P27361)
[18] = molecular target: Serine/threonine-protein kinase 26 (Homo sapiens) (UniProt Q9P289)
[19] = molecular target: Serine/threonine-protein kinase OSR1 (Homo sapiens) (UniProt O95747)
[20] = molecular target: Serine/threonine-protein kinase PAK 5 (Homo sapiens) (UniProt Q9P286)
[21] = molecular target: Cyclin-dependent kinase 16 (Homo sapiens) (UniProt Q00536)
[22] = molecular target: Serine/threonine-protein kinase pim-3 (Homo sapiens) (UniProt Q86V86)
[23] = molecular target: Serine/threonine-protein kinase PLK1 (Homo sapiens) (UniProt P53350)
[24] = molecular target: Serine/threonine-protein kinase RIO2 (Homo sapiens) (UniProt Q9BVS4)
[25] = molecular target: Ribosomal protein S6 kinase alpha-3 (Homo sapiens) (UniProt P51812)
[26] = molecular target: STE20-like serine/threonine-protein kinase (Homo sapiens) (UniProt Q9H2G2)
[27] = molecular target: Serine/threonine-protein kinase 38 (Homo sapiens) (UniProt Q15208)
[28] = molecular target: T2, Serine/threonine-protein kinase VRK1 (Homo sapiens) (UniProt Q99986)
T2 sequence (whole entry): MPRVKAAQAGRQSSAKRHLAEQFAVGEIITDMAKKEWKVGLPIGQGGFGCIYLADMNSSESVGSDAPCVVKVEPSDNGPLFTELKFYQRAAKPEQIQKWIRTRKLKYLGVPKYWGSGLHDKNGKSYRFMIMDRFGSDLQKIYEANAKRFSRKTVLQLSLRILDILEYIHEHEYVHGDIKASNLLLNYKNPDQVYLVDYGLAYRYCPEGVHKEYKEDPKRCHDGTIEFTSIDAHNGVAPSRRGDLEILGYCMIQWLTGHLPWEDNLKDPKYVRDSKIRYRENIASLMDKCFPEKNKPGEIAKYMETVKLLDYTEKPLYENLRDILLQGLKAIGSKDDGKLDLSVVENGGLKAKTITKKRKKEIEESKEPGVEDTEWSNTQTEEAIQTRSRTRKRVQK

[29] = molecular target: T3, Serine/threonine-protein kinase VRK3 (Homo sapiens) (UniProt Q8IV63)
T3 sequence (whole entry): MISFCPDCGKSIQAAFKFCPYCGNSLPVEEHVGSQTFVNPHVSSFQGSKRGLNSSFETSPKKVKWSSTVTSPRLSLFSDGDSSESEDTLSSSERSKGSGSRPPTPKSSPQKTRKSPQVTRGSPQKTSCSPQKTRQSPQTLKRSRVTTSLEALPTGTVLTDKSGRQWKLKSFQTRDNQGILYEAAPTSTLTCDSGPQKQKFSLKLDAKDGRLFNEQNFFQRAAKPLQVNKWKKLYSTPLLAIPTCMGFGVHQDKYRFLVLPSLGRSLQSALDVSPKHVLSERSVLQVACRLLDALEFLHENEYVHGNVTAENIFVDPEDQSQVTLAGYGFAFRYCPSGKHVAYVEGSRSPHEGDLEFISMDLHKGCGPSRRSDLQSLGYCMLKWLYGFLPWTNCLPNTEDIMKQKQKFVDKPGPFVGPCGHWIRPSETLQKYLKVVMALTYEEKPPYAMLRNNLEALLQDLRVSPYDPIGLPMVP

Sequence of Serine/threonine-protein kinase PAK 5 (Homo sapiens) (Q9P286 whole entry, looked up): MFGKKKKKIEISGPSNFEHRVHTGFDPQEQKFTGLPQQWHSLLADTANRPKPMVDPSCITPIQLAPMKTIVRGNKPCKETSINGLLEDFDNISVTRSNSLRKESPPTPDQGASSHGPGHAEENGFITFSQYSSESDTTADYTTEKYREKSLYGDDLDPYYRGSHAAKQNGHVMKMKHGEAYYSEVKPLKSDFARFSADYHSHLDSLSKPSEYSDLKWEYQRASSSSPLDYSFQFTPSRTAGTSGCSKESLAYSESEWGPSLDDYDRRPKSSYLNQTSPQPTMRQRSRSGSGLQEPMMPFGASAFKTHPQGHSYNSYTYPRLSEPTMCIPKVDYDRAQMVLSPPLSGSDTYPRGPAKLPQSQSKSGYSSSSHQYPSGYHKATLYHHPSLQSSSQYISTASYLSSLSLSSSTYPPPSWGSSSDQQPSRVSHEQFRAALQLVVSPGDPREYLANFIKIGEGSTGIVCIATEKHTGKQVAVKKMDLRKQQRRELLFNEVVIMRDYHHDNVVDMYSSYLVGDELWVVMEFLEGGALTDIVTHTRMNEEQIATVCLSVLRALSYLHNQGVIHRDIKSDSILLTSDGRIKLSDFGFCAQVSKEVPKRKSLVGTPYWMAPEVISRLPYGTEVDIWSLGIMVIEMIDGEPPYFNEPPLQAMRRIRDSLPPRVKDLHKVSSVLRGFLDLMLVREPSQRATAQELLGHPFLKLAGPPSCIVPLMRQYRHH
Sequence of Calcium/calmodulin-dependent protein kinase type II subunit delta (Homo sapiens) (Q13557 whole entry): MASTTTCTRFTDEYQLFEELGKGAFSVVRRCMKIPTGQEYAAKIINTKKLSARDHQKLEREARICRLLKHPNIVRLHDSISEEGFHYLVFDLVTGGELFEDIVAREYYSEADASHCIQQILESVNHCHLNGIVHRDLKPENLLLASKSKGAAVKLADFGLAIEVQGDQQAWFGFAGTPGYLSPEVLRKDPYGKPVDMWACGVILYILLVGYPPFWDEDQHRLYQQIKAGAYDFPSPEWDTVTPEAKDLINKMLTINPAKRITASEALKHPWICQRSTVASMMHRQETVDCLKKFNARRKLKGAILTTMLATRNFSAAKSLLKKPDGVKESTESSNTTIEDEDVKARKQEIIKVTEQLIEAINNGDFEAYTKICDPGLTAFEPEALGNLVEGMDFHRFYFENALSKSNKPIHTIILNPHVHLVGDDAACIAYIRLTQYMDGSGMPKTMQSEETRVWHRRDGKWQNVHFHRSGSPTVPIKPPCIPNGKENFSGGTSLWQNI
Sequence of Mitogen-activated protein kinase 3 (P27361 whole entry): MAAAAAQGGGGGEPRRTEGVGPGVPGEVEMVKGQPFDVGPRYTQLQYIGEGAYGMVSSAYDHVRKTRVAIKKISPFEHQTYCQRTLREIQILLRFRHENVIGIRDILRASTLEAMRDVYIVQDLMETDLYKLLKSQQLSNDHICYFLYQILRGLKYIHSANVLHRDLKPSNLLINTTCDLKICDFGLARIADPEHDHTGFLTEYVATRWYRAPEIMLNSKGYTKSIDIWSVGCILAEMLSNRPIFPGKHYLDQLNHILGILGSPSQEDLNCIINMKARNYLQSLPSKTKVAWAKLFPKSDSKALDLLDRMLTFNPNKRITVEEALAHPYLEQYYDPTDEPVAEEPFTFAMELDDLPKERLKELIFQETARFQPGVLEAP
Sequence of Cyclin-dependent kinase 6 (Homo sapiens) (Q00534 whole entry): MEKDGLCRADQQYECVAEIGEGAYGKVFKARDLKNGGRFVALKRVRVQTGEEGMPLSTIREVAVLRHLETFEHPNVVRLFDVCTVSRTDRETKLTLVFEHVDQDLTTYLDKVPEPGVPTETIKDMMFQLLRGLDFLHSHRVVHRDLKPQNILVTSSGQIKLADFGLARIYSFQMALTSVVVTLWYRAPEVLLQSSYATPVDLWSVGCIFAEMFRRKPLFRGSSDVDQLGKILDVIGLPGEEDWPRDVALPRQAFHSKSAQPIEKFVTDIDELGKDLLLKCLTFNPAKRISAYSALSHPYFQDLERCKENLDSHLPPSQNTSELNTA
Sequence of Cyclin-dependent kinase 16 (Homo sapiens) (Q00536 whole entry): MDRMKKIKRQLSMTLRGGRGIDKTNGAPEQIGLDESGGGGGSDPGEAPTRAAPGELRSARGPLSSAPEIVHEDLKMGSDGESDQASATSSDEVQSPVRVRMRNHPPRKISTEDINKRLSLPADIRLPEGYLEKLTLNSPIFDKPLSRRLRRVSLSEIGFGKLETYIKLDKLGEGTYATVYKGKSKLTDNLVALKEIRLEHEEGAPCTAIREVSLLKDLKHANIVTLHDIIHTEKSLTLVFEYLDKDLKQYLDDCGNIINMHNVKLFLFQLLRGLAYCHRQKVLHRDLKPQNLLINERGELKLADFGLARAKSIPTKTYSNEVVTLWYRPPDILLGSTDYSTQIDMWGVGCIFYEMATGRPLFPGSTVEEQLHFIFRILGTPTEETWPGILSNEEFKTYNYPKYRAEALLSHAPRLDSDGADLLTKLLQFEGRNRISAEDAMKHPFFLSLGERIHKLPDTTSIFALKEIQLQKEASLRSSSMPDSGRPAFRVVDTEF
Sequence of Ribosomal protein S6 kinase alpha-3 (Homo sapiens) (P51812 whole entry): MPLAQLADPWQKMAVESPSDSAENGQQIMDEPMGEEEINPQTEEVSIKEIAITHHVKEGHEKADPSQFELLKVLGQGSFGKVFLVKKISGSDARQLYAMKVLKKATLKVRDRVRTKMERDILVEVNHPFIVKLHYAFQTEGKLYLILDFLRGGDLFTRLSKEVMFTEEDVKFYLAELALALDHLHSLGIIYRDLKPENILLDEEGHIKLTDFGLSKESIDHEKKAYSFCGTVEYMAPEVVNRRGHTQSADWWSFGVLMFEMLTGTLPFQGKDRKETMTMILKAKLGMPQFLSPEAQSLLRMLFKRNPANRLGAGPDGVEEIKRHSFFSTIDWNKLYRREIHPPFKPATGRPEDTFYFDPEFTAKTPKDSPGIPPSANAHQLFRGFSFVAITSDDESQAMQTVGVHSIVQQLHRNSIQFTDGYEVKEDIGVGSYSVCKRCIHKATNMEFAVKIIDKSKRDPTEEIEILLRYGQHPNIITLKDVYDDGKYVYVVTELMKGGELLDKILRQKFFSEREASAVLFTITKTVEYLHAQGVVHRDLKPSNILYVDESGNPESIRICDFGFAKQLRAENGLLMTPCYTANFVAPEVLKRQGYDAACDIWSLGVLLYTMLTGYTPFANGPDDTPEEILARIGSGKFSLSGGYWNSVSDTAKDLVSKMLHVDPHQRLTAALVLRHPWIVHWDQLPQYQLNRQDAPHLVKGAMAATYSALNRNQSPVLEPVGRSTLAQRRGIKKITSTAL
Sequence of Calcium/calmodulin-dependent protein kinase type II subunit beta (Homo sapiens) (Q13554 whole entry): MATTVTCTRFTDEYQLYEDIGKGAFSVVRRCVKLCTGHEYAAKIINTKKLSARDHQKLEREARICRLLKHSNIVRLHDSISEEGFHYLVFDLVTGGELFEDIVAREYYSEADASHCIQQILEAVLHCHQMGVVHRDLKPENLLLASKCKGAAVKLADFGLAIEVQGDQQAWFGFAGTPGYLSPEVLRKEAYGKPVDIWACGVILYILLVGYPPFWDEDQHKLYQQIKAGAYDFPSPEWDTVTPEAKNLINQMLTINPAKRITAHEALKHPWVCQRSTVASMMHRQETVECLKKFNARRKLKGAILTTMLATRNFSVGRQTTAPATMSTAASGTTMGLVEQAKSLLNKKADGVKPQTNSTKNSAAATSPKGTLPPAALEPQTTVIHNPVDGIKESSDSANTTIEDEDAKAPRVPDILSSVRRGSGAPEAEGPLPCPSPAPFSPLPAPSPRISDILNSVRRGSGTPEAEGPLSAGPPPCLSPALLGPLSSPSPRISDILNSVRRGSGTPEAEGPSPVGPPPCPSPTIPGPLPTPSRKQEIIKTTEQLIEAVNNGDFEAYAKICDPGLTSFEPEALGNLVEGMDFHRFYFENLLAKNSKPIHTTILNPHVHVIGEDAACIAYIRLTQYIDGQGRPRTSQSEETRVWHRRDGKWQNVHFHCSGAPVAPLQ
Sequence of Tyrosine-protein kinase JAK1 (Homo sapiens) (P23458 whole entry): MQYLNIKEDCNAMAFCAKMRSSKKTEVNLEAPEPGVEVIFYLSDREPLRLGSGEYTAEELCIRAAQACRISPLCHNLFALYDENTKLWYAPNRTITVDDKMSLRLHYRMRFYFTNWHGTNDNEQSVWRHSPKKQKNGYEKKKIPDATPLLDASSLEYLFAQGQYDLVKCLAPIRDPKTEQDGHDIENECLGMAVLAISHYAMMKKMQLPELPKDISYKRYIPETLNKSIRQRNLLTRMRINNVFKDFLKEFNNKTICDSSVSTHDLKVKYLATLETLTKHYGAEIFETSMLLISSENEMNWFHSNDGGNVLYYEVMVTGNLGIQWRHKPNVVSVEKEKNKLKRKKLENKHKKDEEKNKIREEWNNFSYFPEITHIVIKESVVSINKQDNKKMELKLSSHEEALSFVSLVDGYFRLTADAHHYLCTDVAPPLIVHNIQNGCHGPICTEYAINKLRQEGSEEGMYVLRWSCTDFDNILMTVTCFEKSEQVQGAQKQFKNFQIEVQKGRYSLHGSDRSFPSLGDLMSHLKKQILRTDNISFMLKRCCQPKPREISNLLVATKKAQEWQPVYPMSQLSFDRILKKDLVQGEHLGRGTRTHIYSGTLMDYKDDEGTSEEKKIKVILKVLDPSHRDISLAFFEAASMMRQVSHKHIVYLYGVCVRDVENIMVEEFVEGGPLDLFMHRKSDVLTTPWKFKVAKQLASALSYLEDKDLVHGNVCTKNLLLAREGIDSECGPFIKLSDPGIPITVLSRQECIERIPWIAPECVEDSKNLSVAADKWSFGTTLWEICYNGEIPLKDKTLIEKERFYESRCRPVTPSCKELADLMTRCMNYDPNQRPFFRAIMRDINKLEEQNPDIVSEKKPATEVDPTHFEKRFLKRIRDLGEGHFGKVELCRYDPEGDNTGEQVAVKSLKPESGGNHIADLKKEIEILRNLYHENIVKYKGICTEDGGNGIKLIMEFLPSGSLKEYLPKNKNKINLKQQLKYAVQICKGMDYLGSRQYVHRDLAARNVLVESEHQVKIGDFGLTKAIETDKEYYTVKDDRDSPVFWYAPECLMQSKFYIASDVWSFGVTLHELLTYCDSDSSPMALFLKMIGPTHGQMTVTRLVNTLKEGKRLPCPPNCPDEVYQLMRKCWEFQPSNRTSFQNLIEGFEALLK

Structure (SMILES): COc1ccc2c(c[n+](C)c3c4cc5c(cc4ccc23)OCO5)c1OC [CHELERYTHRINE CHLORIDE]
- ΔTm [1]: -1.3 °C
- ΔTm [2]: 0.6 °C
- ΔTm [3]: 0.1 °C
- ΔTm [4]: -0.8 °C
- ΔTm [5]: -0.2 °C
- ΔTm [6]: 0.2 °C
- ΔTm [7]: -1 °C
- ΔTm [8]: -3.5 °C
- ΔTm [9]: -3.9 °C
- ΔTm [10]: -4.4 °C
- ΔTm [11]: -0.2 °C
- ΔTm [12]: 0.2 °C
- ΔTm [13]: 0.1 °C
- ΔTm [14]: 0.3 °C
- ΔTm [15]: -0.9 °C
- ΔTm [16]: -6.6 °C
- ΔTm [17]: -0.5 °C
- ΔTm [18]: -1 °C
- ΔTm [19]: -2.6 °C
- ΔTm [20]: -1.7 °C
- ΔTm [21]: -0.2 °C
- ΔTm [22]: -0.9 °C
- ΔTm [23]: 0 °C
- ΔTm [24]: -0.4 °C
- ΔTm [25]: -0.3 °C
- ΔTm [26]: -2.4 °C
- ΔTm [27]: 0.1 °C
- ΔTm [28]: -0.1 °C
- ΔTm [29]: -0.6 °C

Structure (SMILES): CCOC(=O)c1cnc2oc3ccc(O)cc3c2c1-c1ccccc1
- ΔTm [1]: 0 °C
- ΔTm [2]: 0.7 °C
- ΔTm [3]: 0.4 °C
- ΔTm [4]: -0.1 °C
- ΔTm [5]: 0.5 °C
- ΔTm [6]: 1 °C
- ΔTm [7]: 0.1 °C
- ΔTm [8]: -0.3 °C
- ΔTm [9]: 0.8 °C
- ΔTm [10]: 6.2 °C
- ΔTm [11]: 1.1 °C
- ΔTm [12]: 1.1 °C
- ΔTm [13]: 0.8 °C
- ΔTm [14]: 8.6 °C
- ΔTm [15]: 0.5 °C
- ΔTm [16]: 1.9 °C
- ΔTm [17]: -0.1 °C
- ΔTm [18]: -0.2 °C
- ΔTm [19]: 1.3 °C
- ΔTm [20]: 0.5 °C
- ΔTm [21]: -0.6 °C
- ΔTm [22]: 5.2 °C
- ΔTm [23]: 0.8 °C
- ΔTm [24]: 1.2 °C
- ΔTm [25]: 1 °C
- ΔTm [26]: 2.3 °C
- ΔTm [27]: 0.2 °C
- ΔTm [28]: 0.1 °C
- ΔTm [29]: -0.6 °C

Structure (SMILES): O=C1NC(=O)c2c1c1c3ccccc3n3c1c1c2c2ccccc2n1C1CCC3O1
- ΔTm [1]: 3.9 °C
- ΔTm [2]: -0.4 °C
- ΔTm [3]: 1.2 °C
- ΔTm [4]: -0.2 °C
- ΔTm [5]: 0 °C
- ΔTm [6]: 0.2 °C
- ΔTm [7]: -0.3 °C
- ΔTm [8]: -0.4 °C
- ΔTm [9]: 3.9 °C
- ΔTm [10]: 3.3 °C
- ΔTm [11]: 0.7 °C
- ΔTm [12]: 0.3 °C
- ΔTm [13]: -0.5 °C
- ΔTm [14]: -0.2 °C
- ΔTm [15]: -0.2 °C
- ΔTm [16]: -0.2 °C
- ΔTm [17]: -0.2 °C
- ΔTm [18]: 1.5 °C
- ΔTm [19]: 0.7 °C
- ΔTm [20]: 2.4 °C
- ΔTm [21]: 0.3 °C
- ΔTm [22]: 7.3 °C
- ΔTm [23]: 4 °C
- ΔTm [24]: -0.2 °C
- ΔTm [25]: -0.4 °C
- ΔTm [26]: 0.1 °C
- ΔTm [27]: 0 °C
- ΔTm [28]: -0.1 °C
- ΔTm [29]: 0 °C

Structure (SMILES): CCN(CC)CCNC(=O)c1c(C)[nH]c(/C=C2\C(=O)Nc3ccc(Cl)cc32)c1C [SU-11652]
- ΔTm [1]: 7 °C
- ΔTm [2]: 5.7 °C
- ΔTm [3]: 2.8 °C
- ΔTm [4]: 2.3 °C
- ΔTm [5]: 6.2 °C
- ΔTm [6]: 0.9 °C
- ΔTm [7]: 2 °C
- ΔTm [8]: 0.2 °C
- ΔTm [9]: 10.3 °C
- ΔTm [10]: 6.6 °C
- ΔTm [11]: 4 °C
- ΔTm [12]: 3.8 °C
- ΔTm [13]: 5.9 °C
- ΔTm [14]: 9.7 °C
- ΔTm [15]: 6.3 °C
- ΔTm [16]: 2.4 °C
- ΔTm [17]: 0 °C
- ΔTm [18]: 3.8 °C
- ΔTm [19]: 2.9 °C
- ΔTm [20]: 4.7 °C
- ΔTm [21]: 3.5 °C
- ΔTm [22]: 4.7 °C
- ΔTm [23]: 0.5 °C
- ΔTm [24]: 1.6 °C
- ΔTm [25]: 6.8 °C
- ΔTm [26]: 7.5 °C
- ΔTm [27]: 2.7 °C
- ΔTm [28]: 0.6 °C
- ΔTm [29]: 0.3 °C

Structure (SMILES): Cc1cc(C=C2C(=O)C=CC2=O)cc(C)c1O
- ΔTm [1]: -2.2 °C
- ΔTm [2]: 1.2 °C
- ΔTm [3]: -0.1 °C
- ΔTm [4]: 1.1 °C
- ΔTm [5]: 0.3 °C
- ΔTm [6]: 1 °C
- ΔTm [7]: -3.4 °C
- ΔTm [8]: -2.2 °C
- ΔTm [9]: 2.5 °C
- ΔTm [10]: -0.4 °C
- ΔTm [11]: 0.5 °C
- ΔTm [12]: -0.1 °C
- ΔTm [13]: 0.6 °C
- ΔTm [14]: -7.1 °C
- ΔTm [15]: -2 °C
- ΔTm [16]: 7.9 °C
- ΔTm [17]: 0.6 °C
- ΔTm [18]: 0.4 °C
- ΔTm [19]: 0.1 °C
- ΔTm [20]: 0.1 °C
- ΔTm [21]: 2.2 °C
- ΔTm [22]: 3.6 °C
- ΔTm [23]: 0.6 °C
- ΔTm [24]: 0.7 °C
- ΔTm [25]: -7.9 °C
- ΔTm [26]: 0.7 °C
- ΔTm [27]: 0.2 °C
- ΔTm [28]: -3.1 °C
- ΔTm [29]: -0.3 °C

Structure (SMILES): N#CC(C#N)=Cc1ccc(O)c(O)c1 [TYRPHOSTIN 23]
- ΔTm [1]: -0.1 °C
- ΔTm [2]: 0.2 °C
- ΔTm [3]: 0.1 °C
- ΔTm [4]: 0.4 °C
- ΔTm [5]: -0.1 °C
- ΔTm [6]: 1.1 °C
- ΔTm [7]: 0.2 °C
- ΔTm [8]: -0.1 °C
- ΔTm [9]: 0.7 °C
- ΔTm [10]: 0.7 °C
- ΔTm [11]: 0.4 °C
- ΔTm [12]: 0.3 °C
- ΔTm [13]: 0.7 °C
- ΔTm [14]: 0.1 °C
- ΔTm [15]: 0.1 °C
- ΔTm [16]: 0.2 °C
- ΔTm [17]: 0.3 °C
- ΔTm [18]: 0.3 °C
- ΔTm [19]: 0.8 °C
- ΔTm [20]: 0.5 °C
- ΔTm [21]: -0.7 °C
- ΔTm [22]: 1.6 °C
- ΔTm [23]: 0.4 °C
- ΔTm [24]: 1.5 °C
- ΔTm [25]: 2.7 °C
- ΔTm [26]: 0.6 °C
- ΔTm [27]: 0.2 °C
- ΔTm [28]: 0.1 °C
- ΔTm [29]: -0.2 °C

Structure (SMILES): CN(C)c1ncnc2nc[nH]c12 [DIMETHYLADENINE]
- ΔTm [1]: -0.6 °C
- ΔTm [2]: 1.7 °C
- ΔTm [3]: 0 °C
- ΔTm [4]: -0.2 °C
- ΔTm [5]: 0 °C
- ΔTm [6]: 0.3 °C
- ΔTm [7]: 0.1 °C
- ΔTm [8]: 0 °C
- ΔTm [9]: 0.5 °C
- ΔTm [10]: 1.3 °C
- ΔTm [11]: 0.5 °C
- ΔTm [12]: 0.5 °C
- ΔTm [13]: 0.9 °C
- ΔTm [14]: 0.9 °C
- ΔTm [15]: -0.2 °C
- ΔTm [16]: 0.2 °C
- ΔTm [17]: 0.4 °C
- ΔTm [18]: 0.1 °C
- ΔTm [19]: 1.1 °C
- ΔTm [20]: 0 °C
- ΔTm [21]: -0.3 °C
- ΔTm [22]: 0.9 °C
- ΔTm [23]: 0.5 °C
- ΔTm [24]: 0.1 °C
- ΔTm [25]: 0.8 °C
- ΔTm [26]: 0.8 °C
- ΔTm [27]: 0.3 °C
- ΔTm [28]: 0 °C
- ΔTm [29]: -1 °C
